The source of these data is ChEMBL document CHEMBL3407349, “The discovery of Polo-like kinase 4 inhibitors: identification of (1R,2S).2-(3-((E).4-(((cis).2,6-dimethylmorpholino)methyl)styryl). 1H.indazol-6-yl)-5'-methoxyspiro[cyclopropane-1,3'-indolin]-2'-one (CFI-400945) as a potent, orally active antitumor agent” (J Med Chem, 2015).

Series [1] relates to MDA-MB-468. Kind of series: Growth inhibition of human MDA-MB-468 cells after 5 days by SRB assay. The format is functional. (In general: The SRB assay estimates cell density from bound dye.)
Series [2] concerns HMEC. Kind of series: (§1) Growth inhibition of human HMEC cells after 5 days by SRB assay. The settings on record: hmec, 120 h. The format is cell-based.
Series [3] can be described thus: AUC in athymic CD1 nude mouse at 25 mg/kg, po by LC/MS/MS analysis. More on the design: dose 25 mg/kg, route oral. The settings on record: plasma. The format is ADME, organism-based.
Series [4] relates to MCF7. Kind of series: Growth inhibition of human MCF7 cells after 5 days by SRB assay. The format is functional.
The test system of series [5] is MDA-MB-231. Kind of series: Growth inhibition of human MDA-MB-231 cells after 5 days by SRB assay. The series is classed as functional.
Series [6] deals with Cytochrome P450 2D6 (Homo sapiens, UniProt P10635). In words: Inhibition of CYP2D6 (unknown origin) by fluorescence assay. The format is ADME.
Sequence of Cytochrome P450 2D6 (P10635 whole entry): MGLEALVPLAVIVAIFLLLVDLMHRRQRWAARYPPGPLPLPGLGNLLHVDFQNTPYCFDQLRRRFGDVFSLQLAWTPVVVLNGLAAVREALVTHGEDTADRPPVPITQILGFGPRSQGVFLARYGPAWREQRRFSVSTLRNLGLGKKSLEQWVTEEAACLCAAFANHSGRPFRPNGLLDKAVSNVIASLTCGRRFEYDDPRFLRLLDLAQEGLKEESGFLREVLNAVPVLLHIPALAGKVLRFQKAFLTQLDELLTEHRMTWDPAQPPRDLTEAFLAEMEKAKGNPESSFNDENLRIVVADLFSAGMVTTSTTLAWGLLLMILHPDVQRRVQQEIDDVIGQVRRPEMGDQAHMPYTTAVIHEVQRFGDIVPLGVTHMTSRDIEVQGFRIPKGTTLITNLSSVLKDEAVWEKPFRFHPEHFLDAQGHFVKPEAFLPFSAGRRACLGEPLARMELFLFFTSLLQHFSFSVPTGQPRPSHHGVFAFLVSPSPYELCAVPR
Series [7] addresses T1, Cytochrome P450 3A4 (Homo sapiens, UniProt P08684). In words: Inhibition of CYP3A4 (unknown origin) using DBF as substrate by fluorescence assay.
Series [8] can be described thus: Cmax in athymic CD1 nude mouse at 25 mg/kg, po by LC/MS/MS analysis. The format is ADME, organism-based. More on the design: dose 25 mg/kg, route oral. The conditions noted are these: in vivo.
A short description of series [9]: Half life in human liver microsomes. The settings on record: liver microsomes.
The target of series [10] is T1, Cytochrome P450 3A4. In words: Inhibition of CYP3A4 (unknown origin) using BFC as substrate by fluorescence assay.
The target of series [11] is T2, Cytochrome P450 1A2 (Homo sapiens, UniProt P05177).
T2 sequence (P05177 whole entry): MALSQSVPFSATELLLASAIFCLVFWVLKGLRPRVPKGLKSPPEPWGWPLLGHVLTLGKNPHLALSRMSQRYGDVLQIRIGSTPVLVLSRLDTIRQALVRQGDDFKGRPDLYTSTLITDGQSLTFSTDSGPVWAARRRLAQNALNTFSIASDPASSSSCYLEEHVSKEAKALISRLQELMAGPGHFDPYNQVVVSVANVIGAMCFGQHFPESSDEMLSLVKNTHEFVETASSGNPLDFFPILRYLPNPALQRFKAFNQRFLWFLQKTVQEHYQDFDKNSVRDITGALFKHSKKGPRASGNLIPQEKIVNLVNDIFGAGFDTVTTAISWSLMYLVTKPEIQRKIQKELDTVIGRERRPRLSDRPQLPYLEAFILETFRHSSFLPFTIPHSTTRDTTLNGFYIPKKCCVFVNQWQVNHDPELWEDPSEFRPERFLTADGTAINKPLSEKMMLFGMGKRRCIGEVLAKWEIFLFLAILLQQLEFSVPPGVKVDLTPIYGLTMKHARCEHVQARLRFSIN
In words: Inhibition of CYP1A2 (unknown origin) by fluorescence assay. The series is classed as ADME.

Series [12] concerns SW-620. Kind of series: Growth inhibition of human SW620 cells after 5 days by SRB assay. The format is functional. The conditions noted are these: SW-620, 120 h.
For series [13], the system named is MDA-MB-468. In words: Antitumor activity against human MDA-MB-468 cells xenografted in CB-17 SCID mouse assessed as tumor growth inhibition at 9.4 mg/kg, po qd administered for 21 days. The series is classed as functional. The conditions noted are these: MDA-MB-468, 504 h, read-out: TGI. (In general: Xenograft models place foreign cells or tissue in a host animal.)

The nature of series [14]: Growth inhibition of human CAL51 cells after 5 days by SRB assay. The format is functional. The settings on record: CAL-51, 120 h.
Series [15] concerns Mus musculus. In words: Toxicity in CB-17 SCID mouse xenografted with human MDA-MB-468 cells assessed as mortality at 3 to 9.4 mg/kg, po qd administered for 21 days. More on the design: dose 3-9.4 mg/kg, route oral. The conditions noted are these: in vivo, 504 h. The format is organism-based.
Series [16] is described as follows: Toxicity in po dosed athymic CD-1 nude mouse xenografted with human HCT116 cells administered qd 1-on/3-off schedule up to day 21. The conditions noted are these: CD-1 athymic nude, in vivo. The format is organism-based, HCT-116.
A short description of series [17]: Oral bioavailability in beagle dog at 5 mg/kg. The series is classed as ADME, organism-based, Canis lupus familiaris. The settings on record: in vivo.
Series [18] is described as follows: Antitumor activity against human SW620 cells xenografted in CB-17 SCID mouse assessed as tumor growth inhibition at 9.4 mg/kg, po qd administered for 21 days. The settings on record: SW-620, 504 h, read-out: TGI. The series is classed as functional.
Series [19] in a line: Growth inhibition of human BT20 cells after 5 days by SRB assay. The format is functional. The settings on record: BT-20, 120 h.
A short description of series [20]: Antitumor activity against human SW620 cells xenografted in CB-17 SCID mouse assessed as tumor growth inhibition at 3 mg/kg, po qd administered for 21 days. The conditions noted are these: SW-620, 504 h, read-out: TGI. The format is functional.
A short description of series [21]: AUC(infinity) in Sprague-Dawley rat at 1 mg/kg, iv. The series is classed as ADME, organism-based. Set-up: time infinity, dose 1 mg/kg, route intravenous. The settings on record: plasma.
A short description of series [22]: as §1. The format is cell-based. The conditions noted are these: HMEC cells.
Series [23] in a line: Growth inhibition of human SKBR3 cells after 5 days by SRB assay. The format is functional. The conditions noted are these: SK-BR-3, 120 h.
A short description of series [24]: Oral bioavailability in Sprague-Dawley rat at 5 mg/kg. The series is classed as ADME, organism-based. The conditions noted are these: in vivo.
The subject of series [25] is Mus musculus. Kind of series: Toxicity in CB-17 SCID mouse xenografted with human MDA-MB-468 cells assessed as loss in body weight at 3 to 9.4 mg/kg, po qd administered for 21 days relative to control. The series is classed as organism-based. Set-up: dose 3-9.4 mg/kg, route oral. The settings on record: in vivo, 504 h.
Series [26] is described as follows: Growth inhibition of human OVCAR3 cells after 5 days by SRB assay. The series is classed as functional. The settings on record: OVCAR-3, 120 h.
Series [27] is described as follows: AUC(infinity) in beagle dog at 1 mg/kg, iv. Set-up: time infinity, dose 1 mg/kg, route intravenous. The series is classed as ADME, organism-based, Canis lupus familiaris. The conditions noted are these: plasma.
Series [28] concerns MDA-MB-468. In words: Antitumor activity against human MDA-MB-468 cells xenografted in CB-17 SCID mouse assessed as tumor growth inhibition at 3 mg/kg, po qd administered for 21 days. The format is functional. The conditions noted are these: MDA-MB-468, 504 h, read-out: TGI.
For series [29], the system named is A549. Kind of series: Antitumor activity against human A549 cells xenografted in CB-17 SCID mouse assessed as tumor growth inhibition at 9.4 mg/kg, po qd administered for 21 days. The settings on record: A549, 504 h, read-out: TGI. The series is classed as functional.
A short description of series [30]: Growth inhibition of human COLO205 cells after 5 days by SRB assay. The series is classed as functional. The settings on record: COLO 205, 120 h.
Series [31] concerns HCC1954. In words: Growth inhibition of human HCC1954 cells after 5 days by SRB assay. The series is classed as functional. The settings on record: Homo sapiens, HCC1954, 120 h.
The nature of series [32]: Half life in Sprague-Dawley rat at 1 mg/kg, iv. Set-up: dose 1 mg/kg, route intravenous. The conditions noted are these: in vivo. The series is classed as ADME, organism-based.
Series [33] is described as follows: Growth inhibition of human HCT116 cells after 5 days by SRB assay. The format is functional. The settings on record: HCT-116, 120 h.
Series [34] concerns A549. Kind of series: Antitumor activity against human A549 cells xenografted in CB-17 SCID mouse assessed as tumor growth inhibition at 3 mg/kg, po qd administered for 21 days. The conditions noted are these: A549, 504 h, read-out: TGI. The format is functional.
The test system of series [35] is A549. In words: Growth inhibition of human A549 cells after 5 days by SRB assay. The format is functional. The settings on record: A549, 120 h.
Series [36] in a line: Antitumor activity against human HCT116 cells xenografted in athymic CD-1 nude mouse assessed as tumor growth inhibition at MTD, po qd administered 1-on/3-off schedule up to day 21. The format is functional, HCT-116.
The nature of series [37]: Half life in beagle dog at 1 mg/kg, iv. Set-up: dose 1 mg/kg, route intravenous. The settings on record: in vivo. The series is classed as ADME, organism-based, Canis lupus familiaris.
The nature of series [38]: AUC(infinity) in beagle dog at 5 mg/kg, po. Set-up: time infinity, dose 5 mg/kg, route oral. The settings on record: plasma. The series is classed as ADME, organism-based, Canis lupus familiaris.
Series [39] can be described thus: AUC(infinity) in Sprague-Dawley rat at 5 mg/kg, po. The format is ADME, organism-based. Set-up: dose 5 mg/kg, route oral, time infinity. The settings on record: plasma.

As usually defined, the GI50 is the concentration that inhibits growth by half. What is called AUC is the area under the concentration-time curve, a measure of exposure. Low values mean less exposure, high ones more exposure. One may read the IC50 as the concentration at which inhibition is half-maximal. Low values mean inhibition by little substance, high ones a need for much substance. By Cmax is commonly meant the peak of the concentration-time curve. For orientation: half-life means the time in which the quantity being followed falls by half. A low value points to rapid decline. As a reminder, the bioavailability is dose-corrected exposure relative to a reference, in per cent. The term AUC(0-inf) denotes total exposure, with the tail of the curve extrapolated. Read a high AUC(0-inf) as more exposure. In general, TGI refers to the reduction of tumour growth relative to the control group.

T1 sequence (P08684 whole entry): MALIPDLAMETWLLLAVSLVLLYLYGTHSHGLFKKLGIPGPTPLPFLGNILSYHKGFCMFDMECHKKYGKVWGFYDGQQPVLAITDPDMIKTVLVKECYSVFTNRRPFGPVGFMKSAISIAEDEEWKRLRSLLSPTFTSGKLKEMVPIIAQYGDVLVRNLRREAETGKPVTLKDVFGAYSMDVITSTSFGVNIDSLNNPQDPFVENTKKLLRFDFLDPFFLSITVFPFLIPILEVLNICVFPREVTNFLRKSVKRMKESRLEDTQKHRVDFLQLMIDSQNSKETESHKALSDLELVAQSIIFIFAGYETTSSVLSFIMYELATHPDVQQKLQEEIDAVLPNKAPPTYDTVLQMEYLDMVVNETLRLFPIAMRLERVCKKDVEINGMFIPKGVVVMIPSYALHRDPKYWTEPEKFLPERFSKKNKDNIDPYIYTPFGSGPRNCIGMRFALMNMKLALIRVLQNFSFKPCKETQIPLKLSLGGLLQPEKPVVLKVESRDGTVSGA

Consider `CN(C)Cc1ccc(/C=C/c2n[nH]c3cc([C@@H]4C[C@@]45C(=O)Nc4ccccc45)ccc23)cc1`, for which the GI50 in series [1] is less than 1 nM; in series [2] it was 19000 nM; in series [4] it was 250 nM; in series [5] it was 820 nM. In [3], this compound registered an AUC of 260 ng·h/mL. Besides, the “inhibition (INH)” value in series [6] and in series [11] was “Not Active” throughout. For the same compound, the IC50 in series [7] was determined as 10000 nM; in [10] it was 5000 nM. The compound also yielded a Cmax in series [8] of 110 ng/mL. The half-life in series [9] is greater than 1 h.

Take `C[C@@H]1CN(Cc2ccc(/C=C/c3n[nH]c4cc([C@@H]5C[C@@]56C(=O)Nc5ccccc56)ccc34)cc2)C[C@H](C)O1`: the GI50 in series [12] came to 350 nM; in series [14], 91 nM; in series [1] (Homo sapiens, MDA-MB-468, 120 h), 10 nM; in [19], 90 nM; in series [23] it was 7200 nM; in series [4] (Homo sapiens, MCF7, 120 h), 17 nM. Moreover, the GI50 amounted to 6500 nM in series [5] (Homo sapiens, MDA-MB-231, 120 h); 15 nM in series [26]; 57 nM in series [30]; 8 nM in [31]; 8 nM in [33]; 9 nM in [35]. The results for the inhibition in vivo at 9.4 mg/kg in series [13], in [18] and in series [29] were 90%, 80% and 79%, respectively. The Activity result in series [15] is “Non-toxic”; in series [25] it was greater than 20%. Moreover, the MTD at 21 days in [16] is 36 mg/kg. Besides, the bioavailability in series [17] is 49%; in series [24], 46%. In addition, the values for the inhibition in vivo at 3 mg/kg in series [20], in series [28] and in series [34] were 57%, 45% and 44%, respectively. Moreover, the AUC(0-inf) in series [21] came out at 1230 ng·h/mL; in series [27], 2050 ng·h/mL; in series [38] it was 4990 ng·h/mL; in [39] it was 2810 ng·h/mL. The compound further displayed a GI50 at 120 h in series [22] of 8400 nM. In series [3], this compound registered an AUC of 10000 ng·h/mL. Further, the “inhibition (INH)” value in series [6] and in series [11] was “Not Active” each time. This compound displayed a Cmax in [8] of 3700 ng/mL. Besides, the half-life in series [32] is 3.9 h; in series [37], 4.5 h. The TGI in [36] came out at 78%.
